We go through 1 compound from publication PMC6079014, “Calcium is an essential cofactor for metal efflux by the ferroportin transporter family” (Nature Communications, 2018).

The target in the experiment is T1, human Fpn Q99A (Homo sapiens, UniProt Q9NP59, Q99A).
T1 construct: expressed in transfected cells; host or cells: Xenopus laevis oocytes injected with mutant Fpn RNA (pOX(+) vector)
T1 sequence (Q9NP59 1-571 Q99A): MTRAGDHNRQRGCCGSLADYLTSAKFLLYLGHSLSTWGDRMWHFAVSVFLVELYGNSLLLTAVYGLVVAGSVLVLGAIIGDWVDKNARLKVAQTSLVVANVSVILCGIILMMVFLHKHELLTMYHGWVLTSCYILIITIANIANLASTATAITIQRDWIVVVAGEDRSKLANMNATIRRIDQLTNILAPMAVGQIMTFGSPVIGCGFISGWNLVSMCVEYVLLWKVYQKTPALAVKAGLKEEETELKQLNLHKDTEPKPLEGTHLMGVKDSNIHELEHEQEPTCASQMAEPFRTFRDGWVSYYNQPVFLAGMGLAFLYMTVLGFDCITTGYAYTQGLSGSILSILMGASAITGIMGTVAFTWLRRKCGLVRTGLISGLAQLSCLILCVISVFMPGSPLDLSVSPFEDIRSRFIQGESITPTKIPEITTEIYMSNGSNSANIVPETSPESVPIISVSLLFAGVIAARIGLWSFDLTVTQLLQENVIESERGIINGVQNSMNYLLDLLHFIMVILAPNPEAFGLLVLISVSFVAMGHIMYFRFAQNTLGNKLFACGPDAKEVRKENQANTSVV
Nature of the experiment: 55Fe efflux assay in Xenopus oocytes expressing Q99A mutant human Fpn. It counts as cell-based. Conditions: fit by Eq. (2), ± SEM, read-out: K0.5Ca, half-maximal extracellular Ca2+ concentration for stimulation of 55Fe efflux. How it is done:
We performed laparotomy and ovariectomy on adult female Xenopus laevis frogs (Nasco, Fort Atkinson, WI) under 2-aminoethylbenzoate methanesulfonate anesthesia (0.2%, by immersion, to effect) following a protocol approved by the University of Cincinnati Institutional Animal Care and Use Committee. Ovarian tissue was isolated and treated for 3 h with […] collagenase A (Roche Diagnostics Corp., Indianapolis, IN) in calcium-free-modified Barths’ medium (MBM) of composition 88 mM NaCl, 1 mM KCl, 2.4 mM NaHCO3, 1.57 mM MgSO4, 0.66 mM NaNO3, 10 mM 4-(2-hydroxyethyl)-1-piperazineethanesulfonic acid (HEPES), buffered to pH 7.5 by using 2-amino-2-hydroxymethyl-propane-1,3-diol (Tris base). […]
We measured metal efflux from oocytes expressing Fpn by using a radiotracer assay. […]
To initiate the efflux assay, we placed oocytes in standard efflux medium of composition 100 mM NaCl, 1 mM KCl, 2 mM CaCl2, 1 mM MgCl2, 0.5 mM bathophenanthroline disulfonic acid (BPS), 1 mM nitrilotriacetic acid (NTA) trisodium salt, 50 μg/ml apotransferrin (ApoTf) (R&D Systems Inc., Minneapolis, MN), buffered with 0–5 mM MES, and 0–5 mM N′,N′-diethylpiperazine to obtain pH 7.5, with the following exceptions. […] The corresponding oocytes were rinsed twice in ice-cold medium (without BPS), solubilized with 5% (w/v) sodium dodecyl sulfate, and counted (Nt). […]

As to `[Ca+2]` [Ca^2+, calcium], the EC50 worked out at 2.4 mM.
